Values joined by “and” are separate entries in the source; they are usually repeats but may differ in a detail not shown here. Equal values may be shown once.
Assays:
Escherichia coli = test: Microbial challenge of CS gel; format: cell-based
Protocol: 6% CS was prepared in water as a translucent gel. Twenty grams of the gel was placed in a plastic screw-cap centrifuge tube. The microbial inoculants were prepared, gently vortexed and 0.1 ml inoculant was aseptically pipetted into the 20.0 gram gel. This procedure was repeated for each microbial organism. The samples were incubated at room temperature (20-25° C.) for 14 days or 28 days. The microbes tested and their theoretical yields can be found in Table F. After 14 or 28 days incubation, dilutions (10^−1, 10^−2, 10^−3) of the gels were made in saline and 1 ml plated onto Sabouraud dextrose (Aspergillus and Candida) or onto tryptic soy (other microbes). The number of organisms that grew after 3-7 days at room temperature were counted.
In another study, CS was dissolved in water at the concentrations indicated below. No other ingredients, including preservatives, were added. The gels were challenged with microbes as described above except that the gels were examined for the presence of microbes after 1, 2, 3, 4 and 7 days. The amount of microbes origially inoculated in the gels is also shown below.

BPV-1 = BPV-1 focus-forming assay, cells pre-incubated with compound and washed before virus (Table D); format: cell-based, bovine papilloma virus; conditions: for Average ± standard deviation (foci/well): C127-D10 cells, washed before virus
Protocol: Microbicidal activity of compounds was also tested by pre-incubation of cells with compounds followed by addition of virus to compound-coated C127 cells. In these experiments, dilutions of compounds were added to cultures of C127 cells, incubated for 1 hr at 37° C., washed 3 times with media to remove unbound compound, prior to addition of approximately 100 focus-forming units of BPV-1. The cultures were incubated for an additional hour, washed three times to remove unbound virus, then the incubation was continued for two weeks with media changes every 3-4 days and foci counted as described above.
Pre-incubation of C127-D10 cells with compounds prior to addition of BPV-1 was tested to determine whether the microbicidal effects of CS and DS extended to a blockage of virus interaction with cell surfaces. In these experiments, titrations of compounds were added to cell cultures followed by washing away unbound reagent prior to addition of virus. After a one-hour incubation with virus, unbound virus was removed by washing and the cultures monitored for foci after two weeks.

Porphyromonas levii = test: Broth method MIC; format: cell-based
[1] = tested on: Bovine Papillomavirus type I; test: BPV cell focus formation assay (Tables A, B); format: cell-based, bovine papilloma virus
Protocol: Cellulose sulfate was tested for its ability to inhibit BPV infection by cell focus formation assay (see Hermonat et al. (1992) for a description of this assay). Cellulose sulfate from Dextran Products Limited (Lot 80971 in the form of sodium cellulose sulfate, known as Ushercell J.) was mixed with BPV type I (obtained from bovine fibropapillomas) prior to adding the virus to mouse fibroblast line […] cells or mixed with these host cells first prior to adding the virus. In one molecular weight study, the Mr range of cellulose sulfate was about 750 to 20.3 million, with an average Mr of about 1.01 million. […] In another study, the average molecular weight was determined to be about 1.9 million with a peak Mr of about 2.3 million. Unless otherwise specified, the Mr is in daltons. The assay was repeated using different concentrations of cellulose sulfate and the results are shown below.

[2] = in vivo
Source text: Cellulose sulfate offers a further advantage in that irritation by a cytotoxic agent can cause lesions which may facilitate infection and the use of cellulose sulfate is not associated with such risks of infection.

trichomonas vaginalis = test: Inhibition of Trichomonas growth, live count; format: cell-based; conditions: for number of live trichomonas: 5 mg/ml
Protocol: The inhibitory effect of CS on trichomonas vaginalis, protozoa known to cause vaginitis, is shown below. The organisms were grown in modified Diamond's medium. CS was mixed with the organism in modified Diamond's medium at a final concentration of about 5 mg/ml (5.12 mg/ml) and incubated anaerobically at 35° C. Samples were collected at various time points and the number of live trichomonas counted with a hemacytomer. The same procedure was performed in the absence of CS. The volume of the inoculum was varied as indicated in the Tables to study the effect of increasing amounts of the organism on the results.

## sodium cellulose sulfate
Escherichia coli; 6% CS gel
  inactivation of Escherichia: completely inactivated
Escherichia coli; 6% CS gel, ATCC 8739, room temperature, Day 14
  Day 14 CFU/g: 0 CFU/g
Escherichia coli; 6% CS gel, ATCC 8739, room temperature, Day 28
  Day 28 CFU/g: 0 CFU/g
Escherichia coli; CS 0.06% in water, 24 hours
  Escherichia coli CFU: 0 CFU × 10^5/ml
Escherichia coli; CS 0.06% in water, 48 hours
  Escherichia coli CFU: 1.15 CFU × 10^5/ml
Escherichia coli; CS 0.06% in water, 72 hours
  Escherichia coli CFU: 1.21 CFU × 10^5/ml
Escherichia coli; CS 0.06% in water, 96 hours
  Escherichia coli CFU: 0.13 CFU × 10^5/ml
Escherichia coli; CS 0.06% in water, 7 days
  Escherichia coli CFU: 1.12 CFU × 10^5/ml
Escherichia coli; CS 0.6% in water, 24 hours
  Escherichia coli CFU: 5.6 CFU × 10^5/ml
Escherichia coli; CS 0.6% in water, 48 hours
  Escherichia coli CFU: 5.81 CFU × 10^5/ml
Escherichia coli; CS 0.6% in water, 72 hours
  Escherichia coli CFU: 4.43 CFU × 10^5/ml
Escherichia coli; CS 0.6% in water, 96 hours
  Escherichia coli CFU: 6.92 CFU × 10^5/ml
Escherichia coli; CS 0.6% in water, 7 days
  Escherichia coli CFU: 4.39 CFU × 10^5/ml
Escherichia coli; CS 1.2% in water, 24 hours
  Escherichia coli CFU: 0.98 CFU × 10^5/ml
Escherichia coli; CS 1.2% in water, 48 hours
  Escherichia coli CFU: 3.125 CFU × 10^5/ml
Escherichia coli; CS 1.2% in water, 72 hours
  Escherichia coli CFU: 1.625 CFU × 10^5/ml
Escherichia coli; CS 1.2% in water, 96 hours
  Escherichia coli CFU: 4.54 CFU × 10^5/ml
Escherichia coli; CS 1.2% in water, 7 days
  Escherichia coli CFU: 3.78 CFU × 10^5/ml
Escherichia coli; CS 6% in water, 24 hours
  Escherichia coli CFU: 0 CFU × 10^5/ml
Escherichia coli; CS 6% in water, 48 hours
  Escherichia coli CFU: 0.01 CFU × 10^5/ml
Escherichia coli; CS 6% in water, 72 hours
  Escherichia coli CFU: 0 CFU × 10^5/ml
Escherichia coli; CS 6% in water, 96 hours
  Escherichia coli CFU: 0 CFU × 10^5/ml
Escherichia coli; CS 6% in water, 7 days
  Escherichia coli CFU: 0 CFU × 10^5/ml
Escherichia coli; lower CS concentrations (except 0.06% CS gel), no growth occurs
  inactivation of Escherichia: either not inactivated or only to a minor extent
BPV-1; 10 μg/ml
  Average ± standard deviation (foci/well): 103 ± 6.3 foci/well
BPV-1; 100 μg/ml
  Average ± standard deviation (foci/well): 120 ± 8.4 foci/well
BPV-1; 1,000 μg/ml
  Average ± standard deviation (foci/well): 87 ± 45.1 foci/well
BPV-1; 10,000 μg/ml
  Average ± standard deviation (foci/well): 2 ± 1.3 foci/well
BPV-1; C127-D10 cells pre-treated, except at 10 mg/ml
  microbicidal effects: only weak microbicidal effects
Porphyromonas levii; both strains
  growth inhibition: inhibited
Porphyromonas levii; rma# 11425, Broth (study 1)
  CS MIC: 600 µg/mL
Porphyromonas levii; rma# 11425, Broth (study 2)
  CS MIC: 600 µg/mL
Porphyromonas levii; rma# 11601, Broth (study 1)
  CS MIC: 300 µg/mL
Porphyromonas levii; rma# 11601, Broth (study 2)
  CS MIC: 300 µg/mL
[1]; 40 μg/ml, mixed first with the virus
  inhibition of infection: partial inhibition
[1]; 40 μg/ml, pre-incubated with host cells
  inhibition of infection: Complete inhibition
[1]; 200 ug/ml, pre-incubated with the virus before addition to the host cells
  inhibition of infection: almost complete inhibition
[1]; 500 μg/ml, mixed with the virus or with the host cells
  formation of oncogenic foci by the virus: completely inhibited
[1]; Table A, 5.0 μg/ml, pre-incubated with host cells prior to addition to virus
  Viral-induced foci per culture: 72 foci per culture and 60 foci per culture
[1]; Table A, 5.0 μg/ml, pre-incubated with virus prior to addition to host cells
  Viral-induced foci per culture: 121 foci per culture and 97 foci per culture
[1]; Table A, 50 μg/ml, pre-incubated with host cells prior to addition to virus
  Viral-induced foci per culture: 10 foci per culture and 12 foci per culture
[1]; Table A, 50 μg/ml, pre-incubated with virus prior to addition to host cells
  Viral-induced foci per culture: 37 foci per culture and 32 foci per culture
[1]; Table A, 500 μg/ml, pre-incubated with host cells prior to addition to virus
  Viral-induced foci per culture: 0^A foci per culture and 0 foci per culture
[1]; Table A, 500 μg/ml, pre-incubated with virus prior to addition to host cells
  Viral-induced foci per culture: 0^A foci per culture and 0 foci per culture
[1]; Table A, 5000 μg/ml, pre-incubated with host cells prior to addition to virus
  Viral-induced foci per culture: 0^B foci per culture and 0 foci per culture
[1]; Table A, 5000 μg/ml, pre-incubated with virus prior to addition to host cells
  Viral-induced foci per culture: 0^B foci per culture and 0 foci per culture
[1]; Table B, 1.6 μg/ml, pre-incubated with virus prior to addition to host cells
  Viral-induced foci per culture: 196 foci per culture and 168 foci per culture
[1]; Table B, 8.0 μg/ml, pre-incubated with host cells prior to addition to virus
  Viral-induced foci per culture: 5 foci per culture and 3 foci per culture
[1]; Table B, 40 μg/ml, pre-incubated with host cells prior to addition to virus
  Viral-induced foci per culture: 0 foci per culture
[1]; Table B, 40 μg/ml, pre-incubated with virus prior to addition to host cells
  Viral-induced foci per culture: 116 foci per culture and 104 foci per culture
[1]; Table B, 200 μg/ml, pre-incubated with host cells prior to addition to virus
  Viral-induced foci per culture: 0 foci per culture
[1]; Table B, 200 μg/ml, pre-incubated with virus prior to addition to host cells
  Viral-induced foci per culture: 34 foci per culture and 42 foci per culture
[2]
  tolerability versus K-Y Jelly: as well as or even better than K-Y Jelly
  tolerability versus nonoxynol-9: better tolerated than nonoxynol-9
Trichomonas vaginalis; 5 mg/ml CS
  growth of the trichomonas culture: Complete inhibition of growth
Trichomonas vaginalis; 16 hr, 50 μl Trich
  number of live trichomonas: 0 organisms per ml
Trichomonas vaginalis; 16 hr, 100 μl Trich
  number of live trichomonas: 0 organisms per ml
Trichomonas vaginalis; 16 hr, 200 μl Trich
  number of live trichomonas: 0 organisms per ml
Trichomonas vaginalis; 16 hr, 400 μl Trich
  number of live trichomonas: 0 organisms per ml
Trichomonas vaginalis; 24 hr, 50 μl Trich
  number of live trichomonas: 0 organisms per ml
Trichomonas vaginalis; 24 hr, 100 μl Trich
  number of live trichomonas: 0 organisms per ml
Trichomonas vaginalis; 24 hr, 200 μl Trich
  number of live trichomonas: 0 organisms per ml
Trichomonas vaginalis; 24 hr, 400 μl Trich
  number of live trichomonas: 0 organisms per ml
Trichomonas vaginalis; 40 hr, 50 μl Trich
  number of live trichomonas: 0 organisms per ml
Trichomonas vaginalis; 40 hr, 100 μl Trich
  number of live trichomonas: 0 organisms per ml
Trichomonas vaginalis; 40 hr, 200 μl Trich
  number of live trichomonas: 0 organisms per ml
Trichomonas vaginalis; 40 hr, 400 μl Trich
  number of live trichomonas: 0 organisms per ml
Trichomonas vaginalis; 48 hr, 50 μl Trich
  number of live trichomonas: 0 organisms per ml
Trichomonas vaginalis; 48 hr, 100 μl Trich
  number of live trichomonas: 0 organisms per ml
Trichomonas vaginalis; 48 hr, 200 μl Trich
  number of live trichomonas: 0 organisms per ml
Trichomonas vaginalis; 48 hr, 400 μl Trich
  number of live trichomonas: 0 organisms per ml
